Common to all, as to assay: Steady-State Inhibition Assay
Common to all, as to details: pH 7.4

The target in assay [1] is 4-hydroxy-tetrahydrodipicolinate reductase (Escherichia coli (strain K12), UniProt P04036). The text has this:
(§1) All reactions were monitored spectrophotometrically at 340 nm by using initial rates from the first 5% of reaction.

Assay [2] addresses T1, Quinone-dependent D-lactate dehydrogenase (Escherichia coli (strain K12), UniProt P06149).
T1 sequence (P06149 whole entry): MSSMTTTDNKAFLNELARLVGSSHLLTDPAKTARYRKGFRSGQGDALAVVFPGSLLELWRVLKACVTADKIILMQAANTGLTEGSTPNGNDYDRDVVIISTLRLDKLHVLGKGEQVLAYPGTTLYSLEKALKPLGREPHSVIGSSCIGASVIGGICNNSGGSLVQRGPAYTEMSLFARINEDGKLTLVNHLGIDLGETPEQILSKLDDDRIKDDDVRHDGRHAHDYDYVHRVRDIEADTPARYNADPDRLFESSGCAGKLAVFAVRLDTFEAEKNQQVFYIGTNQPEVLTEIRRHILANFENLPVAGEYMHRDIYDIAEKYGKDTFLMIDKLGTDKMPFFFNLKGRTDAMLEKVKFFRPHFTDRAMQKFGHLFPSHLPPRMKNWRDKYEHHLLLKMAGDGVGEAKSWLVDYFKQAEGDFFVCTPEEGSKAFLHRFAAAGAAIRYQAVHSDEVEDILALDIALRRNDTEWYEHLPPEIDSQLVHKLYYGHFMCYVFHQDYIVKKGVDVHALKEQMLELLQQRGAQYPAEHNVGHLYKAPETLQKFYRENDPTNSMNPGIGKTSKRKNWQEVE
Excerpt: as §1

Assay [3] has as its target T2, 1-deoxy-D-xylulose 5-phosphate reductoisomerase (Escherichia coli (strain K12), UniProt P45568).
T2 sequence (P45568 whole entry): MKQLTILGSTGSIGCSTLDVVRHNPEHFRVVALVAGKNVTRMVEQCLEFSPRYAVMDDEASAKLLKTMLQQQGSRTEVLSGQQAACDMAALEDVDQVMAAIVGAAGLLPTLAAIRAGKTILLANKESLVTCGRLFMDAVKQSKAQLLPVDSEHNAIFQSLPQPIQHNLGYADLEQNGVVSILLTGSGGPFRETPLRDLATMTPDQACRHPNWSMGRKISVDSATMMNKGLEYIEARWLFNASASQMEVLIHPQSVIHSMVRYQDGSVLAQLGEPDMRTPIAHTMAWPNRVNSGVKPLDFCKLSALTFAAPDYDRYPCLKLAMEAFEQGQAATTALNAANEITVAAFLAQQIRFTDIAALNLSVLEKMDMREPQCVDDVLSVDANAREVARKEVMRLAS
Excerpt: as §1

Bounds are passed on as bounds.

Chain of 4-hydroxy-tetrahydrodipicolinate reductase (P04036 whole entry): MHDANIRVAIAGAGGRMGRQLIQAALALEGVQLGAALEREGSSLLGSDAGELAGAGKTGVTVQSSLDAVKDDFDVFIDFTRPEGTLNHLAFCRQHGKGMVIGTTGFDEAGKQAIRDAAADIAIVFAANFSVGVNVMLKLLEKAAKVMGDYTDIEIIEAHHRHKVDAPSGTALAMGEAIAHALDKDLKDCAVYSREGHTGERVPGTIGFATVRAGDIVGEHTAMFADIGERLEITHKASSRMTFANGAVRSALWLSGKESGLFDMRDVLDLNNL

As a reminder, the Ki is a dissociation constant, usually derived from enzyme kinetics or from competition with a known ligand. A lower Ki goes with higher affinity. With `O=C(O)CN1C(=O)/C(=C/c2ccc(O)c(O)c2)SC1=S` [Bi-ligand, 1], the Ki is 0.026 µM in assay [1], 55 µM in assay [2] and more than 50 µM in assay [3].
Taken in the same sequence, the figures for `O=C(CCCCN1C(=O)/C(=C/c2ccc(O)c(O)c2)SC1=S)NCc1ccc(Cl)c(Cl)c1` [Bi-ligand, 2] were more than 50 µM, 0.042 µM and 10 µM.
Regarding `Cc1ccc(Oc2ccc(NC(=O)CN3C(=O)/C(=C/c4ccc(O)c(O)c4)SC3=S)cc2)cc1` [Bi-ligand, 3], the Ki is more than 25 µM in assay [1], 12 µM in assay [2] and 0.202 µM in assay [3].
On to `O=C(CN1C(=O)/C(=C/c2ccc(O)c(O)c2)SC1=S)NCCSc1cc(C(=O)O)nc(C(=O)O)c1` [Bi-ligand, 4], for which the Ki turned out to be 0.1 µM in assay [1], 0.62 µM in assay [2] and 7.9 µM in assay [3].

The values above are taken from BindingDB's records for doi:10.1016/j.chembiol.2004.02.012 (Triad Therapeutics, 2004).
